Results published in US8541670B2, “Compositions and methods for inhibiting tumor cell growth” (priority 2007, dated 2013).
Where no end group is shown, it is not given here. red fluorescent dye = not defined here

Experiments:
N2a cells [1] = experiment: Trypan blue staining, live and dead cell count; type: cell-based
Text: Therefore, in addition to capturing live images, cells were stained with trypan blue at different time intervals following treatment with ZaTa and counted by a light microscope using a hemocytometer.

AKT-PKAc complex = AKT-PKAc complex (Mus musculus, UniProt P31750); experiment: In vivo co-immunoprecipitation of AKT-PKAc complex from striatum; design: ZaTa could disrupt the physical complex between AKT and PKAc in vivo; from tissue; host or cells: striatum of adult C57BL/6 mouse; species or system C57BL/6 mouse; details: versus vehicle-treated hemisphere
Protocol: The phenotypic consequence of disrupting the AKT-PKAc complex was also determined. ZaTa peptide was injected into the striatum of one hemisphere of the brain and DMSO, as vehicle, was injected into the other brain hemisphere of an adult C57BL/6 mouse under anesthesia. The brain was removed and dissected. Equal protein amounts from each hemisphere were subjected to immunoprecipitation by an anti-AKT antibody. […] To compare PKAc protein levels in the ZaTa- and vehicle-treated brain hemisphere lysates, western blot analysis was conducted.

N2a cells [2] = experiment: Neurite count and live imaging of N2a neurons; type: cell-based
Protocol: Accordingly, the stability and phenotypic consequences of the AKT-PKAc complex was also analyzed in cultured neurons. N2a cells were treated with vehicle, ZaTa or control peptide for 24 hours. Media was removed after the 24-hour treatment and an equal number of cells from each treatment group was either cultured for another 24 hours without treatment, or lysed and subjected to immunoprecipitation with an antibody against AKT. Those cells cultured for another 24 hours were also harvested and subjected to immunoprecipitation. In parallel, the number of individual neurons with neurites was counted. […] Live images of N2a neurons were captured following treatment with vehicle or ZaTa (2 or 5 μM). […] ZaTa-mediated changes included a progressive loss of neurites, inhibition of new neurite formation, loss of cell motility, as well as formation of large cell colonies.

[3] = mouse, in vivo
SGK = molecular target: T1, SGK (Homo sapiens, UniProt O00141); experiment: Cell-based kinase assay, phosphorylation of intracellular substrate (Ser-421 Huntingtin)
T1 construct: endogenous in cells
T1 sequence (O00141 1-431): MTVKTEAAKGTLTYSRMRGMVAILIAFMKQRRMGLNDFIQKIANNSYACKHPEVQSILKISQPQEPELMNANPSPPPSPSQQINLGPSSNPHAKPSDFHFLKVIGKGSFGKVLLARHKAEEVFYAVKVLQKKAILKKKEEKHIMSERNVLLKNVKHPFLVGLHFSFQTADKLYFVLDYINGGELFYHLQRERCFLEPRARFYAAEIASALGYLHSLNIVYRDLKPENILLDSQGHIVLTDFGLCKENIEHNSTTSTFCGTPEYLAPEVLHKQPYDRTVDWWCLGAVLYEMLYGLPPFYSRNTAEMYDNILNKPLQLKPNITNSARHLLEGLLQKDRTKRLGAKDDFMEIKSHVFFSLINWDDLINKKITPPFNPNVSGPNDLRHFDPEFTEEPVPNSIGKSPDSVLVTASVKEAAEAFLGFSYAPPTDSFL
Protocol: As a specific substrate, the phosphorylation level of GSK-3[…] at Ser-9 was also evaluated. […] The decrease was specific to the AKT phosphorylation site on GSK-3[…] at Ser-9, since a change in the phosphorylation level of GSK-3[…] at Tyr-216 or GSK-3[…] at Tyr-279 was not observed. Moreover, the in vivo reduction of the phosphorylation of AKT substrates was more obvious at the injection site, since a significant change in the phosphorylation of AKT substrates in the frontal cortex or cerebellum between the two hemispheres was not observed. […] To test the specificity/selectivity of ZaTa as the inhibitor of AKT1 versus the other major kinases, a series of in vitro kinase assays was performed at IC50 for AKT1 and at ten times higher concentrations. […]
Phosphorylation sites for kinases analyzed herein included Ser-235/236 S6 (a substrate for p70S6K), Tyr-207 CRKL (a substrate for Abl; Zipfel, et al. (2004) supra), Ser-241 PDK1 (a substrate for PI3K), Tyr-1022/1023 JAK1 (a substrate for JAK3; Wang, et al. (2003) supra), Ser-421 Huntingtin (a substrate for SGK; Rangone, et al. (2004) supra), Tyr-783 PLC (a substrate for TrkB; Middlemas, et al. (1994) supra), and Ser-338 cRaf (a substrate for PAK3; King, et al. (1998) supra).

AKT-PKAc complex, sequence (P31750 whole entry, one chain of several): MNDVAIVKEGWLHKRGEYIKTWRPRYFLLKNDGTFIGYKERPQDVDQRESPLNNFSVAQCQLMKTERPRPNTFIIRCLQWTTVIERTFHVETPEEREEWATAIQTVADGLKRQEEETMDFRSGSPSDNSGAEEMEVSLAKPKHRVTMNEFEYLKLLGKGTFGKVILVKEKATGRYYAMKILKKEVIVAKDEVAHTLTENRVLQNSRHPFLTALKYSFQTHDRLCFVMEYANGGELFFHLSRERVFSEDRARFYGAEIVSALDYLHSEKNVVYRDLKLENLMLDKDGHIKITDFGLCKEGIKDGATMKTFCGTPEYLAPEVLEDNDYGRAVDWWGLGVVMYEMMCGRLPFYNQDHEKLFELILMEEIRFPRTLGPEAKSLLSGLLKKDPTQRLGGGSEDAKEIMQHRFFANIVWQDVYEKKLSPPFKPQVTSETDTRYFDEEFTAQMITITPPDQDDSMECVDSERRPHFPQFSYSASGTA

Q: For AKRVKGRTWTLCGTPEY [ZaTa], which “increase in the number of dead cells” value (N2a cells [1]; counted at time points from 12 to 72 hours) is on record?
A: Its value is “not seen”.

Q: What about the “number of live cells, trypan blue” value (N2a cells [1]; different time intervals) of the same substance?
A: Its value is “dose-dependent decrease”.

Q: And the “amount of PKAc in physical contact with AKT, in vivo” value (AKT-PKAc complex)?
A: Its value is “dramatically reduced”.

Q: What about the “morphology of N2a neurons, live images” value (N2a cells [2]; 2 or 5 μM) of the same substance?
A: The value was “dramatic morphological changes”.

Q: What about the “reversibility of neurite reduction” value (N2a cells [2]; 24-hour incubation in the absence of ZaTa) of the same substance?
A: Its value is “reversible”.

Q: What about the “number of neurons with neurites” value (N2a cells [2]; 24-hour treatment) of the same substance?
A: The value was “significant reduction”.

Q: What about the “distribution and absorption throughout brain tissue” value [3] of the same substance?
A: Its value is “efficient distribution and absorption”.

Q: With “labeled ZaTa: ZaTa peptide labeled with a red fluorescent dye at its N-terminus ({red fluorescent dye}-AKRVKGRTWTLCGTPEY; reading uncertain)” as the substance, how does the “inhibition of SGK in cells” value (SGK) read?
A: Its value is “did not cause inhibition”.
